Assay results: patent EP0256125A1, “MEANS FOR PREVENTING MICROBIOLOGICAL OVERGROWING OF HARD SURFACE” (priority 1985, dated 1987)

Columns and labels:
[1] = tested on: Acremonium charticola; assay: Fungicidal activity, inhibition of mycelium growth on wort agar; assay type: cell-based
Text: (§1) Man prüfte die funguzide Aktivität von Zink-bis-(N-vi- nyloxyethyl)dithiocarbamat gegenüber den reinen Pilzkulturen: Gladosporium resinae, Cladosporium cladosporioides, Acremonium corvum, Acremonium charticola, Penicillium charlesii Smith, Walrotiela subiculesa, Geotrichum candidum Link, Oidium, Penicillium crysogenum. Die genannten Pilze wurden von den Oberflächen der Wände und Decken von Bierbrauereien und Werken für die Herstellung von alkoholfreien Getränken ausgeschieden.
(§2) […] In eine der Petri-Schalen wurde Nährboden mit 1 ml Azeton (Kontrolle) gegossen.
(§3) In 18 bis 20 Stunden nach dem Vergießen des Nährbodens in die Petri-Schalen führte man die Inokulation der reinen Pilzkultur durch, die vorher an einem Schräg-Würzeagar während 15 Tage gezüchtet wurden. Die Inkubation führte man bei einer Temperatur von 25 bis 27°C während 5 Tage durch. Danach wurde der Durchmesser der Pilzkolonien gemessen und der Prozentsatz der Hemmung des Wachstums des Myzeliums (S) nach der Abbott -Formel gezählt: [formula] worin dc Durchmesser der Pilzkolonien in Kontrolle ist, de =Durchmesser der Pilzkolonien in einer Schale mit dem Nährboden ist, der Zink-bis-(N-vinyloxyethyl)dithiocarbamat enthält.

[2] = tested on: Acremonium corvum; assay: as above; assay type: cell-based
Text: as §1, §2, §3

[3] = tested on: Cladosporium cladosporioides; assay: as above; assay type: cell-based
Text: as §1, §2, §3

[4] = tested on: Cladosporium resinae; assay: as above; assay type: cell-based
Text: as §1, §2, §3

[5] = tested on: Geotrichum candidum Link; assay: as above; assay type: cell-based
Text: as §1, §2, §3

[6] = tested on: Penicillium charlesii Smith; assay: as above; assay type: cell-based
Text: as §1, §2, §3

[7] = tested on: Penicillium chrysogenum; assay: as above; assay type: cell-based
Text: as §1, §2, §3

[8] = tested on: Walrotiela subiculesa; assay: as above; assay type: cell-based
Text: as §1, §2, §3

[9] = tested on: Schimmelpilzen, die die Bewachsung von Oberflächen hervorrufen; assay: Fungicidal activity, summary over all tested fungi; assay type: cell-based; conditions: day 5
Text: as §1
Es wurden Lösungen des Zink-bis-(N-vinyloxyethyl)di- thiocarbamats im Azeton verschiedener Konzentration hergestellt, die so berechnet wurde, daß bei der Einführung vor 1 ml Lösung in 10 ml des geschmolzenen Würzeagars (45-50°C) die Konzentration des genannten Stoffes im Medium von 0,0015 bis 0,012% betrug. In eine der Petri-Schalen wurde Nährboden mit 1 ml Azeton (Kontrolle) gegossen.
as §3

[10] = tested on: p. Escherichiae; assay: Bactericidal activity, growth on agar medium; assay type: cell-based; conditions: 37°C, 5 Tage
Description: (§4) Die bakterizide Aktivität des Kalium N-(vinyloxyethyl)-dithiocarbamats gegenüber den Bakterien, die von der Oberfläche von Wänden und Decken der Produktionsräume von Brauereien und Fabriken zur Herstellunq von alkoholfreien Getränken ausgeschieden wurden und die zu p.p.Bacillus, Micrococcus, Pseudomonas, Escherichiae gehören, wurde geprüft.
(§5) Es wurden wäßrige Lösungen des genannten Stoffes verschiedener Konzentration hergestellt, die so berechnet wurde, daß bei Einführung von 1 ml der Lösung in 25 ml geschmolzenen agarisierten Nährboden (45-50°C) die Konzentration des Stoffes im Nährboden von 0,003 bis 0,5% betrug. In 18 bis 24 Stunden wurde auf die Oberfläche des Nährbodens 0,1 ml der wäßrigen Suspension der eintägigen reinen Bakterienkulturen aufgetragen, die am Fleisch-Pepton-Agar gezüchtet wurden. Die Suspension wurde gleichmäßig verteilt. In Kontrollschalen wurden 0,1 ml Wasser auf der Oberfläche des Närhbodens verteilt.
(§6) Die Inkubation führte man bei einer Temperatur von 37°C während 5 Tage durch.
(§7) Die effektive Wirkung des Stoffes wurde nach dem Auftreten des Bakterienwachstums an der Oberfläche des Nährbodens bewertet.

[11] = tested on: p.Bacillus; assay: Bactericidal activity, growth on agar medium; assay type: cell-based; conditions: 37°C, 5 Tage
Description: as §4, §5, §6, §7

[12] = tested on: p.Micrococcus; assay: Bactericidal activity, growth on agar medium; assay type: cell-based; conditions: 37°C, 5 Tage
Description: as §4, §5, §6, §7

[13] = tested on: p.Pseudomonas; assay: Bactericidal activity, growth on agar medium; assay type: cell-based; conditions: 37°C, 5 Tage
Description: as §4, §5, §6, §7

[14] = Storage stability (qualitative); assay type: physicochemical; conditions: result in words
[15] = Solubility in solvents (qualitative)
[16] = Konzentration des Stoffes 0,01 %
[17] = Konzentration des Stoffes 0,1 % (0,10)
[18] = Konzentration des Stoffes 0,02 %
[19] = Konzentration des Stoffes 0,05 %
[20] = Konzentration des Stoffes 0,005 %

With “Kupfer bis-(N-vinyloxyethyl) dithiocarbamat” as the substance, how does the “Hemmung des Myzeliums am 5. Tag des Wachstums, Acremonium charticola” value [1, 16] read?
Its value is 96%.

And the “Hemmung des Myzeliums am 5. Tag des Wachstums, Acremonium charticola” value [1, 17]?
Its value is 100%.

And the “Hemmung des Myzeliums am 5. Tag des Wachstums, Acremonium charticola” value [1, 18]?
The value was 100%.

What about the “Hemmung des Myzeliums am 5. Tag des Wachstums, Acremonium charticola” value [1, 19] of the same substance?
The value was 100%.

And the “Hemmung des Myzeliums am 5. Tag des Wachstums, Acremonium charticola” value [1, 20]?
The value was 70%.

And the “Hemmung des Myzeliums am 5. Tag des Wachstums, Acremonium corvum” value [2, 16]?
Its value is 100%.

What about the “Hemmung des Myzeliums am 5. Tag des Wachstums, Acremonium corvum” value [2, 17] of the same substance?
Its value is 100%.

And the “Hemmung des Myzeliums am 5. Tag des Wachstums, Acremonium corvum” value [2, 18]?
The value was 100%.

And the “Hemmung des Myzeliums am 5. Tag des Wachstums, Acremonium corvum” value [2, 19]?
The value was 100%.

And the “Hemmung des Myzeliums am 5. Tag des Wachstums, Acremonium corvum” value [2, 20]?
Its value is 100%.

And the “Hemmung des Myzeliums am 5. Tag des Wachstums, Cladosporium cladosporioides” value [3, 16]?
Its value is 36%.

What about the “Hemmung des Myzeliums am 5. Tag des Wachstums, Cladosporium cladosporioides” value [3, 17] of the same substance?
The value was 100%.

And the “Hemmung des Myzeliums am 5. Tag des Wachstums, Cladosporium cladosporioides” value [3, 18]?
The value was 65%.

What about the “Hemmung des Myzeliums am 5. Tag des Wachstums, Cladosporium cladosporioides” value [3, 19] of the same substance?
The value was 80%.

And the “Hemmung des Myzeliums am 5. Tag des Wachstums, Cladosporium cladosporioides” value [3, 20]?
The value was 15%.

And the “Hemmung des Myzeliums am 5. Tag des Wachstums, Cladosporium resinae” value [4, 16]?
The value was 34%.

And the “Hemmung des Myzeliums am 5. Tag des Wachstums, Cladosporium resinae” value [4, 17]?
The value was 100%.

What about the “Hemmung des Myzeliums am 5. Tag des Wachstums, Cladosporium resinae” value [4, 18] of the same substance?
The value was 80%.

What about the “Hemmung des Myzeliums am 5. Tag des Wachstums, Cladosporium resinae” value [4, 19] of the same substance?
Its value is 90%.

And the “Hemmung des Myzeliums am 5. Tag des Wachstums, Geotrichum candidum Link” value [5, 16]?
The value was 100%.

And the “Hemmung des Myzeliums am 5. Tag des Wachstums, Geotrichum candidum Link” value [5, 17]?
The value was 100%.

What about the “Hemmung des Myzeliums am 5. Tag des Wachstums, Geotrichum candidum Link” value [5, 18] of the same substance?
Its value is 100%.

And the “Hemmung des Myzeliums am 5. Tag des Wachstums, Geotrichum candidum Link” value [5, 19]?
Its value is 100%.

And the “Hemmung des Myzeliums am 5. Tag des Wachstums, Geotrichum candidum Link” value [5, 20]?
Its value is 100%.

And the “Hemmung des Myzeliums am 5. Tag des Wachstums, Penicillium charlesii Smith” value [6, 16]?
Its value is 30%.

And the “Hemmung des Myzeliums am 5. Tag des Wachstums, Penicillium charlesii Smith” value [6, 17]?
The value was 100%.

What about the “Hemmung des Myzeliums am 5. Tag des Wachstums, Penicillium charlesii Smith” value [6, 18] of the same substance?
The value was 80%.

What about the “Hemmung des Myzeliums am 5. Tag des Wachstums, Penicillium charlesii Smith” value [6, 19] of the same substance?
The value was 100%.

And the “Hemmung des Myzeliums am 5. Tag des Wachstums, Penicillium charlesii Smith” value [6, 20]?
Its value is 15%.

And the “Hemmung des Myzeliums am 5. Tag des Wachstums, Penicillium chrysogenum” value [7, 16]?
The value was 25%.

What about the “Hemmung des Myzeliums am 5. Tag des Wachstums, Penicillium chrysogenum” value [7, 17] of the same substance?
The value was 100%.

What about the “Hemmung des Myzeliums am 5. Tag des Wachstums, Penicillium chrysogenum” value [7, 18] of the same substance?
The value was 36%.

And the “Hemmung des Myzeliums am 5. Tag des Wachstums, Penicillium chrysogenum” value [7, 19]?
Its value is 70%.

And the “Hemmung des Myzeliums am 5. Tag des Wachstums, Penicillium chrysogenum” value [7, 20]?
Its value is 10%.

And the “Hemmung des Myzeliums am 5. Tag des Wachstums, Walrotiela subiculesa” value [8, 16]?
The value was 0%.

What about the “Hemmung des Myzeliums am 5. Tag des Wachstums, Walrotiela subiculesa” value [8, 17] of the same substance?
Its value is 100%.

What about the “Hemmung des Myzeliums am 5. Tag des Wachstums, Walrotiela subiculesa” value [8, 18] of the same substance?
Its value is 10%.

What about the “Hemmung des Myzeliums am 5. Tag des Wachstums, Walrotiela subiculesa” value [8, 19] of the same substance?
The value was 37%.

And the “Hemmung des Myzeliums am 5. Tag des Wachstums, Walrotiela subiculesa” value [8, 20]?
The value was 0%.

And the “Konzentration, bei der die Entwicklung aller untersuchten Pilze vollständig gehemmt wurde” value [9]?
Its value is 0,1%.

What about the “Konzentration der Salze der N-(vinyloxyethyl)dithiocarbaminsäure (100%), die das Wachstum der Bakterien am 5. Tag des Wachstums hemmen, p. Escherichiae” value [10] of the same substance?
The value was 0,15%.

And the “Konzentration der Salze der N-(vinyloxyethyl)dithiocarbaminsäure (100%), die das Wachstum der Bakterien am 5. Tag des Wachstums hemmen, p.Bacillus” value [11]?
The value was 0,15%.

And the “Konzentration der Salze der N-(vinyloxyethyl)dithiocarbaminsäure (100%), die das Wachstum der Bakterien am 5. Tag des Wachstums hemmen, p.Micrococcus” value [12]?
The value was 0,15%.

And the “Konzentration der Salze der N-(vinyloxyethyl)dithiocarbaminsäure (100%), die das Wachstum der Bakterien am 5. Tag des Wachstums hemmen, p.Pseudomonas” value [13]?
The value was 0,15%.

And the Lagerbeständigkeit [14]?
Its Lagerbeständigkeit is “lagerbeständig”.

What about the “Löslichkeit im Alkohol” value ([15]; Alkohol (Ethylalkohol)) of the same substance?
Its value is “bearenzt löslich”.

What about the “Löslichkeit im Azeton” value ([15]; Azeton) of the same substance?
The value was “bearenzt löslich”.

What about the “Löslichkeit im Diethylether” value ([15]; Diethylether) of the same substance?
Its value is “nicht löslich”.

And the “Löslichkeit im Dimethylsulfoxid” value ([15]; Dimethylsulfoxid)?
Its value is “gut löslich”.

What about the “Löslichkeit in Wasser” value ([15]; Wasser) of the same substance?
Its value is “bearenzt löslich”.
